Like-named read-outs stand apart in the source and are kept apart here.
Experiments:
[1] = after last heroin use; cited from earlier work
[2] = tested on: antibodies of Example 3 (antibody of the invention against 6-acetylmorphine); type: binding; details: 6-AM Conc. 10 ng/mL
Procedure: Cross reactivity to heroin metabolites and other common structurally related opiates may be evaluated using the antibodies described herein. Immunoassays are constructed using the antibodies of Example 3, configured to operate in a competitive mode immunoassay format, in which the analogue compounds of the invention are compared with other related compounds for cross reaction against 6-acetylmorphine. […] Aliquots of labeled 6-acetylmorphine at 10 ng/mL are incubated in the presence of competing compound with the antibody of the invention, and the level of interaction of the competitor compound determined as a reduction in measured signal compared with the situation where only 6-acetylmorphine is present.
Cross reactivity to heroin metabolites and other common structurally related opiates were evaluated using the antibodies as described with reference to Example 3. […] Aliquots of labeled 6-acetylmorphine at 10 ng/mL were incubated in the presence of competing compound with the antibody of the invention, and the level of interaction of the competitor compound determined as a reduction in measured signal compared with the situation where only 6-acetylmorphine was present.

[3] = tested on: selected monoclonal antibody against 6-AM; assay: competitive assay for 6-AM developed with a selected antibody; type: binding; details: at clinically relevant concentrations
Procedure: (§1) The bacterial cells from each antibody library are streaked on agar to generate colonies. The colonies, coding for monoclonal antibodies, are used to inoculate culture medium in individual wells in 96-well plates. The liquid cultures are grown overnight and used to generate frozen cell stocks. The frozen cell stocks are used to generate duplicate 96-well plate cultures, followed by expression and purification of the monoclonal antibodies in soluble form in microgram quantities.
as §1, with “were” for “are”

Row | SMILES | crossreactivity [3] | also measured
1 | CC(=O)O[C@H]1C=CC2[C@H]3Cc4ccc(O)c5c4[C@@]2(CCN3C)[C@H]1O5 (stereo partly drawn) [6-Acetylmorphine] |  | time 6-AM remains in the urine [1]: no more than 24 hours; Cross-Reactivity (%) ([2]; Analyte Conc. 10 ng/mL): 100%
2 | CC(=O)Oc1ccc2c3c1O[C@H]1[C@@H](OC(C)=O)C=C[C@H]4[C@@H](C2)N(C)CC[C@@]341 [Heroin, Diacetylmorphine] |  | Cross-Reactivity (%) ([2]; Analyte Conc. 750 ng/mL): 1.3%
3 | CN1CC[C@]23c4c5ccc(O[C@@H]6O[C@H](C(=O)O)[C@@H](O)[C@H](O)[C@H]6O)c4O[C@H]2[C@@H](O)C=C[C@H]3[C@H]1C5 [Morphine 3-D-glucuronide] | no crossreactivity | 
4 | CN1CC[C@]23c4c5ccc(O)c4O[C@H]2[C@@H](O[C@@H]2O[C@H](C(=O)O)[C@@H](O)[C@H](O)[C@H]2O)C=C[C@H]3[C@H]1C5 [Morphine 6-D-glucuronide] | no crossreactivity | 
5 | CN1CC[C@]23c4c5ccc(O)c4O[C@H]2[C@@H](O)C=C[C@H]3[C@H]1C5 [Morphine] | no crossreactivity | 

— patent publication US11628216B2 (priority 2013, dated 2023)
